Target: T1, human BTK (Homo sapiens, UniProt Q06187)
T1 construct: purchased Reaction Biology Corp
Assay: In vitro BTK kinase activity, 33P isotope-labeled kinase activity assay (Reaction Biology Corp)
Assay type: biochemical
Details: 33P-ATP, 2 hours at room temperature
Description: The IC50 values were determined using ^33P isotope-labeled kinase activity assay (Reaction Biology Corp) to evaluate the inhibitory ability of the tested compounds on human BTK.
Buffer conditions: 20 mM Hepes (pH 7.5), 10 mM MgCl2, 1 mM EGTA, 0.02% Brij35, 0.02 mg/mL BSA, 0.1 mM Na3VO4, 2 mM DTT, 1% DMSO.
Test procedure: At room temperature, the tested compound was dissolved in DMSO to prepare a 10 mM solution for later use. The substrate was dissolved in a newly prepared buffer solution, and the tested BTK kinase was added thereto and mixed evenly. The compound dissolved in DMSO was added to the kinase reaction mixture through Echo 550 (Acoustic technology; Nanoliter range). After incubation for 20 minutes at room temperature, ^33P-ATP was added to initiate the reaction. The reaction was carried out at room temperature for 2 hours, and the radioactivity of the reaction liquid point was detected by filtration-binding method with P81 ion exchange filter paper. The kinase activity data were expressed by comparing the kinase activity of the group containing the tested compound with the kinase activity of the blank group (only containing DMSO), and the IC50 value was obtained by curve fitting by Prism4 software (GraphPad), the experimental results are shown in Table 10.

T1 sequence (Q06187 whole entry): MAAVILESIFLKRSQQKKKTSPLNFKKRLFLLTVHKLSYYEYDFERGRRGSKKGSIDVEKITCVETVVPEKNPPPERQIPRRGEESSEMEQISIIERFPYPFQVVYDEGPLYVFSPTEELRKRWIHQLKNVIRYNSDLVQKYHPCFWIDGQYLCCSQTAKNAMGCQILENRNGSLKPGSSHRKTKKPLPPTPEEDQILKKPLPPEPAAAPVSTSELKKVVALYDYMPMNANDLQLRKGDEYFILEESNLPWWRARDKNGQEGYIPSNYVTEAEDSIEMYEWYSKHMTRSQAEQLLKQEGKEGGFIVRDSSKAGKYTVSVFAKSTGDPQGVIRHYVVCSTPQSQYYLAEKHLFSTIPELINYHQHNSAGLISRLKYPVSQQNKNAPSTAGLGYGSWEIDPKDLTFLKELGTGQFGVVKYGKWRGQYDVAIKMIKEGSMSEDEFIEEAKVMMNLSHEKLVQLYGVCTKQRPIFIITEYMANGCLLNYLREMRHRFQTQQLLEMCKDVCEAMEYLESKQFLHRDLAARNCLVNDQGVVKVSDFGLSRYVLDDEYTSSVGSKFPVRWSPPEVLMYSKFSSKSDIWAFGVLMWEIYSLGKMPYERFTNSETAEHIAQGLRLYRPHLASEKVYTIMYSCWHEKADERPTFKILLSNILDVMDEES

In the case of `Cc1cc(-c2nc(C(=O)Nc3cn4cc(CCC(C)(C)O)nc4cc3N3CCCCC3)co2)ccn1` [WX001], the IC50 is reported as 6.7 nM.

From patent publication US12459940B2, “Oxazole compound as multi-targeted inhibitor of IRAK4 and BTK” (SHANGHAI FOSUN PHARMACEUTICAL INDUSTRIAL DEVELOPMENT CO., …, priority 2019, dated 2025)
